Experimental data as given in US10653670B2, “Use of indole compounds for fat reduction and skin and soft tissue tightening” (Alevere Medical Corporation, priority 2013, dated 2020).
Entries after “also recorded” stand apart in the source; their conditions may differ.

Key:
[1] = test system: adipocytes over nerve cells, dermal cells, muscle cells, and endothelial cells; assay: LIVE/DEAD assay, tissue preference (adipocytes versus other cell types); type: cell-based, human; conditions: for tissue specificity / tissue preference: Example 2, FIGS. 5-8 and table, 2 and 5 hours in FIGS. 6-8
adipocytes [2] = assay: Histology of injected immediate ex-vivo abdominoplasty tissue; type: cell-based, human
Procedure: As the indole group has not been previously used for intralesional fat reduction, a method of obtaining histologic specimens had to be modified.
The tissue model described herein, therefore, was immediate ex-vivo abdominoplasty tissue that had been permitted for use by the surgical patient. Segments of abdominal skin and subcutaneous fat were injected with identified test compounds, plus a negative saline control and three positive controls: 1% deoxycholate, the commercial preparation of Aqualyx®, and the Network Lipolysis PC/DC formula.
Because there was no host; inflammatory changes would not be expected. This study was only performed to assess the immediacy of adipocyte changes, and to determine the method of action of each compound.

[3] = test system: fat pad (human fat graft); assay: Nude mouse study, injection into engrafted human fat pad; type: in vivo
Procedure: This example reports exemplary compounds reported in Example 1. A mouse study was performed to test compounds of the embodiments. Eight test compounds were injected. In addition to normal saline and compound diluent (DMSO plus excipients) (negative controls), positive controls included 1% sodium deoxycholate (DC, MasterPharm, Richmond Hill, N.Y.), phosphatidylcholine 25 mg/ml plus deoxycholate 12 mg/ml (PC/DC, PC25/DC 12, MasterPharm, Richmond Hill, N.Y.), and Aqualyx®, a sodium deoxycholate in a lactose carrier (Marllor International, Italy).
Seventy nude mice were chosen for a study of safety and efficacy of injectable lipolytic compounds. Human fat was harvested one hour prior to the injection procedure. 0.5 cc of fat was loaded into micro syringes. Engraftment took place under general anesthesia. Four weeks later, the fat pad size was measured and compounds injected precisely using a 6 mm meso needle in the center and 0.5 cm cephalad and caudad to the midpoint. Mice were sacrificed at one day, one week, two weeks and 4 weeks. […]
Each fat pad was measured and weighed on the analytical balance at the time of sacrifice. […]
Size reduction after compound injection was measured against the measurement taken just previous to injection of compounds. […] Compound dose was calculated based on the average weight of each mouse and was based on the maximum safe dose of PC/DC. […]

[4] = recent reports following clinical trials; cited from earlier work
adipocytes [5] = assay: LIVE/DEAD calcein/ethidium bromide assay, adipocyte kill rate; type: cell-based, human; conditions: for adipocyte kill rate / aggressiveness: Example 2, FIGS. 5-8 and table; for Adipocyte, averaged ethidium numbers: kill rate (ethidium), all tissue types on the same plate
Procedure: (§1) The time and concentration dependent effects of drug substance on both cell viability and toxicity were evaluated using a two-color fluorescence assay that measures plasma membrane integrity and intracellular enzyme activity. Live cells are determined by the strong fluorescence of calcein AM upon enzymatic conversion. […] The ratio of ethidium to calcein fluorescence is an excellent measure of the relative amount of live and dead cells.
(§2) Initial screening was performed using a variety of cell viability and cytotoxicity assays, including Presto Blue® (Invitrogen, Grand Island, N.Y.), Alamar Blue® (Invitrogen, Grand Island, N.Y.), Cyto-Tox One® (Promega, Madison, Wis.), and Cell Titer Glo® (Promega, Madison, Wis.). […] An MTT terazolium assay was performed, as well as LDH and ATP based assays. […] The LIVE/DEAD® for mammalian cells assay was used. LIVE/DEAD® for mammalian cells assay is a calcein (live read)/ethidium bromide (dead) multiplex assay.
(§3) A sample of DMSO/PBS was a negative control. A sample of Aqualyx® was a positive control. In the table, 24M is phosphatidylcholine 25 mg/ml plus deoxycholate 12 mg/and 25N is C 50/DC24; these were positive controls. The numbers in the table refer to averaged ethidium numbers. The percentages represent the relative kill rate for each cell type when rated against the adipocyte kill rate for that compound. All tissue types were tested on the same plate against adipocytes in order to standardize results.
(§4) Over seventy compounds of the embodiments were tested for adipocytolysis, then for tissue preference. A consistent assay with multiplex information was a calcein/ethidium bromide assay that assesses cell viability and cell death simultaneously. Cell viability was checked using the Countess device. All plates were inoculated with 100 microliters of the appropriate cell types. A 6 well repeat was used to verify results. Cell types used included cultured human adult derived adipocytes, dermal fibroblasts, skeletal muscle cells, and endothelial cells (Cell Applications, Inc., San Diego, Calif.). Human peripheral nerve cells (Innoprot, Spain) were also used.
(§5) Compounds were formulated using a DMSO/PBS excipient. A 10 mg/ml concentration was used. One hundred microliters of test compound was inserted into 6 wells of 5 cell types, placed in adjacent rows. The plates were incubated for 4 hours. Indicator was added to each well, and plates were read at 45 minutes using a fluorescence spectrophotometer (Molecular Devices, Sunnyvale, Calif.).

dermal fibroblasts = type: cell-based; conditions: for Dermis, averaged ethidium numbers: kill rate (ethidium), same plate as adipocytes; for Dermis, relative kill rate rated against the adipocyte kill rate: percentage in brackets
Procedure: as §1, §2, §3, §4, §5

nerve cells = type: cell-based; conditions: for Nerve, averaged ethidium numbers: kill rate (ethidium), same plate as adipocytes; for Nerve, relative kill rate rated against the adipocyte kill rate: percentage in brackets
Procedure: as §1, §2, §3, §4, §5

skeletal muscle cells = assay: LIVE/DEAD calcein/ethidium bromide assay, muscle cell kill rate; type: cell-based, human; conditions: for Muscle, averaged ethidium numbers: kill rate (ethidium), same plate as adipocytes; for Muscle, relative kill rate rated against the adipocyte kill rate: percentage in brackets
Procedure: as §1, §2, §3, §4, §5

endothelial cells = assay: LIVE/DEAD calcein/ethidium bromide assay, endothelial cell kill rate; type: cell-based, human; conditions: for Endothelial, averaged ethidium numbers: kill rate (ethidium), same plate as adipocytes; for Endothelial, relative kill rate rated against the adipocyte kill rate: percentage in brackets
Procedure: as §1, §2, §3, §4, §5

| SMILES | tissue specificity / tissue preference [1] | histology finding / mechanism of action (adipocytes [2]; at 4 hours) | adipocyte kill rate / aggressiveness (adipocytes [5]) | Adipocyte, averaged ethidium numbers (adipocytes [5]) | Dermis, averaged ethidium numbers (dermal fibroblasts) | Dermis, relative kill rate rated against the adipocyte kill rate (dermal fibroblasts) [%] | Nerve, averaged ethidium numbers (nerve cells) | Nerve, relative kill rate rated against the adipocyte kill rate (nerve cells) [%] | Muscle, averaged ethidium numbers (skeletal muscle cells) | Muscle, relative kill rate rated against the adipocyte kill rate (skeletal muscle cells) [%] | Endothelial, averaged ethidium numbers (endothelial cells) | Endothelial, relative kill rate rated against the adipocyte kill rate (endothelial cells) [%] | histology finding / mechanism of action (adipocytes [2]; at 12 hours) | other results |
| --- | --- | --- | --- | --- | --- | --- | --- | --- | --- | --- | --- | --- | --- | --- |
| C[C@H](CCC(=O)[O-])[C@H]1CC[C@H]2[C@@H]3CC[C@@H]4C[C@H](O)CC[C@]4(C)[C@H]3C[C@H](O)[C@]12C.[Na+] [1% deoxycholate, sodium deoxycholate] | indiscriminate | Cell wall lysis | – | – | – | – | – | – | – | – | – | – | – | gross effect on fat pad graft ([3]; four weeks after injection): Visible and measurable fat reduction; gross effect on fat pad graft ([3]; one day after injection): Immediate necrosis; instances of facial nerve palsy [4]: two; numbness with paresthesias, patients treated [4]: up to 40% |
| O=C(O)c1cc2ccccc2[nH]1 [Compound 29, 1H-indole-2-carboxylic acid] | most strongly tissue preferential; also recorded: strongly adipocyte preferential | – | less aggressive; also recorded: equivalent to that of Compounds D and E | 83 | 9 | 11 | 15 | 18 | 14 | 17 | 8.5 | 10 | primarily an apoptotic mechanism | – |
| c1ccc2[nH]ccc2c1 [Compound 33, 1H-indole] | moderate tissue specificity | pyroptotic activity | fairly low adipocyte kill rate | 32 | 17 | 53 | 17 | 53 | 18 | 56 | 18 | 56 | – | ethidium results for dermis, muscle and endothelial cells compared with adipocytes ([1]; 4 time points over 24 hours): less than half toxic; tissue preference ([1]; Example 5, FIG. 12, 10 mg/ml, 4 hours incubation): about 50% |
| Brc1ccc2[nH]ccc2c1 [Compound 38, 5-bromo-1H-indole] | moderate preference | primarily cytolysis | aggressive adipocyte killer | 558 | 148 | 27 | 551 | 99 | 362 | 65 | 289 | 50 | – | toxicity to dermis / dermal fibroblasts (dermal fibroblasts; Example 2, FIGS. 6-8): not nearly as toxic; toxicity to nerve cells (nerve cells; Example 2, FIGS. 6-8): toxic to nerve cells |
| O=C(O)Cc1c[nH]c2ccc(Br)cc12 [Compound 41, 2-(5-bromo-1H-indol-3-yl) acetic acid] | most strongly tissue preferential; also recorded: high tissue preference index | – | moderate; also recorded: strong adipocytolytic capability | 149 | 27 | 18 | 32 | 20 | 40 | 27 | 44 | 30 | Pyroptotic mechanism | – |
